{"source": "patent US20180193304A1", "about": "“PHYTOTERPENOID FACILITATION OF THERAPEUTIC ONSET AND EFFICACY OF SUBLINGUAL CANNABINOID ADMINISTRATION” (JC Pharma Inc., priority 2017, published 2018)", "origin": "cited, not measured here", "key": {"inflammation [1]": {"tested_on": "inflammation", "conditions": "compared to steroid alternatives"}, "CB2 receptor [2]": {"molecular_target": "T1, CB2 receptor (Homo sapiens, UniProt P34972)", "T1 sequence (P34972 whole entry)": "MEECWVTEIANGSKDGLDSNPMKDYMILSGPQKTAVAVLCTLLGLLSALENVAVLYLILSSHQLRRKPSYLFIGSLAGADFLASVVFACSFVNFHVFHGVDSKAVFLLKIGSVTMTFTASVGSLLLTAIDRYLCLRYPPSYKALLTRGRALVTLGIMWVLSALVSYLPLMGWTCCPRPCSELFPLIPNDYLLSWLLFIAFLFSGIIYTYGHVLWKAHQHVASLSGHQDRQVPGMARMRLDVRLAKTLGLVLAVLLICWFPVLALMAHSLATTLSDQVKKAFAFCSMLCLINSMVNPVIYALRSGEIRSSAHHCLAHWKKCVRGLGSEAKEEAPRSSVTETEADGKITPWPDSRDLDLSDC"}, "CB2 receptor [3]": {"molecular_target": "T1, CB2 receptor", "remark": "listed apart in the source"}, "[4]": {"tested_on": "experimental airways allergic inflammation", "conditions": "oral"}, "inflammation [5]": {"tested_on": "inflammation", "conditions": "mouse, in vivo"}}, "data": [{"smiles": "C=C1CC/C=C(\\C)CC[C@@H]2[C@@H]1CC2(C)C", "note": "[β-caryophyllene]", "values": [{"measurement": "anti-inflammatory response", "setting": "inflammation [1]", "result": "comparable anti-inflammatory responses to steroid alternatives"}, {"measurement": "functional activity at CB2 receptor", "setting": "CB2 receptor [2]", "result": "functional CB2 agonist"}, {"measurement": "binding to the CB2 receptor", "setting": "CB2 receptor [3]", "result": "selectively binds to the CB2 receptor"}]}, {"smiles": "C/C1=C\\CC/C(C)=C/CC(C)(C)/C=C/C1", "note": "[humulene]", "values": [{"measurement": "reduction of inflammation", "setting": "[4]", "result": "highly effective at reducing inflammation"}, {"measurement": "reduction of inflammation and pain relief", "setting": "inflammation [5]", "result": "effective in reducing inflammation and offering pain relief"}, {"measurement": "anti-inflammatory response", "setting": "inflammation [1]", "result": "comparable anti-inflammatory responses to steroid alternatives"}]}]}
